Results from patent US8703805B2 (Exelixis Patent Company LLC, priority 2005, dated 2014).

system: LXRα and/or LXRβ; assay: LXR/LXRE co-transfection assay (luciferase reporter, CV-1 cells); format: cell-based, human; settings: IC50 or EC50 for LXR (LXRα and/or LXRβ, not distinguished), tested as described in Example 109, CV-1 cells
Excerpt: To measure the ability of compounds to activate or inhibit the transcriptional activity of LXR in a cell based assay, the co-transfection assay was used. It has been shown that LXR functions as a heterodimer with RXR. For the co-transfection assay; expression plasmids for LXR and RXR are introduced via transient transfection into mammalian cells along with a luciferase reporter plasmid that contains one copy of a DNA sequence that is bound by LXR-RXR heterodimers (LXRE; Willy, P. ad. 1995). Treatment of transfected cells with an LXR agonist increases the transcriptional activity of LXR, which is measured by an increase in luciferase activity.
CV-1 African Green Monkey Kidney Cells Co-transfection expression plasmids, comprising full-length LXRα (pCMX-h LXRα, LXRβ (pCMX-hLXRβ), or RXRα (pCMX-RXR), reporter plasmid (LXREx1-Tk-Luciferase), and control (pCMX-Galactosidase expression vector) (Willey et al. Genes & Development 91033-1045 (1995)). Transfection reagent such as FuGENE6 (Roche). 1× Cell lysis buffer (1% Triton X 100 (IT Baker X200-07), 10% Glycerol (JT Baker M778-07), 5 mM Ditriotreitol (Quantum Bioprobe DTT03; add fresh before lysing), 1 mM EGTA (Ethylene Glycol-bis(B-Amino ethyl ether)-N,N,N′,N′-Tetracetic Acid) (Sigma E-4378), 25 mM Tricine (ICN 807420) pH 7.8) 1× Luciferase assay buffer (pH at 7.8) (0.73 mM ATP, 22.3 mM Tricine, 0.11 mM EDTA, 33.3 mM DTT) 1× Luciferrin/CoA (11 mM Luciferin, 3.05 mM Coenzyme A, 10 mM HEPES) Preparation of Screening Reagents
CV-1 cells were prepared 24 hours prior to the experiment by plating them into T-175 flasks or 500 cm^2 dishes in order to achieve 70-80% confluency on the day of the transfection. The number of cells to be transfected was determined by the number of plates to be screened. each 384 well plate requires 1.92×10^6 cells or 5000 cells per well. DNA Transfection Reagent was prepared by mixing the required plasmid DNAs with a cationic lipid transfection reagent FuGENE6 (Roche) by following the instructions provided with the reagents. Optimal DNA amounts were determined empirically per cell line and size of vessel to be transfected. 10-12 mL of media was added to the DNA Transfection Reagent and this mixture was added to the cells after aspirating media from the T175 cm^2 flask. Cells were then incubated at least 5 hours at 37° C. to prepare screening cells.
Luciferase assay reagent was prepared by combining before use (per 10 mL): […], 0.54 mL of 1× Luciferrin/CoA; 0.54 mL of 0.2 M Magnesium sulfate
Assay plates were prepared by dispensing 5 μL of compound per well of a 384 well plate to achieve final compound concentration of 10 μM and no more than 1% DMSO. Media was removed from the screening cells, the cells trypsinized, harvested cells by centrifugation, counted, and plated at a density of approximately 5000 cells per well in the 384 well assay plate prepared above in a volume of about 45 μL. Assay plates containing both compounds and screening cells (50 μL in total volume) were incubated for 20 hours at 37° C.
After incubation with compounds, media was removed from the cells and lysis buffer (30 μL/well) added. After 30 minutes at ambient temperature, luciferase assay buffer (30 μL/well) was added and the assay plates read on a luminometer (PE Biosystems Northstar reader with on-board injectors, or equivalent). Plates were read immediately after addition of luciferase assay buffer.
The LXR/LXRE co-transfection assay can be used to establish the EC50/IC50 values for potency and percent activity or inhibition for efficacy. Efficacy defines the activity of a compound relative to a high control ((N-(3-((4-fluorophenyl)-(naphthalene-2-sulfonyl)amino)propyl)-2,2-dimethylpropionamide)) or a low control (DMSO/vehicle). The dose response curves are generated from an 8 point curve with concentrations differing by ½ LOG units. each point represents the average of 4 wells of data from a 384 well plate. […]

EC50 [nM]	Compound
1000 to 10000	CC(C)(O)c1cc(-c2ccc(-c3cccc(S(C)(=O)=O)c3)s2)n(-c2ccccn2)n1 [Example 1264, 2-(5-{5-[3-(methylsulfonyl)phenyl]-2-thienyl}-1-pyridin-2-yl-1H-pyrazol-3-yl)propan-2-ol]
< 1000	COC(=O)c1cc(-c2ccc(-c3cccc(S(C)(=O)=O)c3)s2)n(-c2c(Cl)cccc2Cl)n1 [Example 1238, methyl 1-(2,6-dichlorophenyl)-5-{5-[3-(methylsulfonyl)phenyl]-2-thienyl}-1H-pyrazole-3-carboxylate]
1000 to 10000	CC(C)(O)c1cc(-c2ccc(-c3cccc(S(C)(=O)=O)c3)s2)n(-c2ncccc2F)n1 [Example 1272, 2-[1-(3-fluoropyridin-2-yl)-5-{5-[3-(methylsulfonyl)phenyl]-2-thienyl}-1H-pyrazol-3-yl]propan-2-ol]
1000 to 10000	CN(C)CCNC(=O)c1cccc(-c2ccc(-c3cc(C(C)(C)O)nn3-c3ccccc3Cl)cc2)c1 [Example 1293, 4′-[1-(2-chlorophenyl)-3-(1-hydroxy-methylethyl)-1H-pyrazol-5-yl]-N-[2-(dimethylamino)ethyl]biphenyl-3-carboxamide]
1000 to 10000	CC(C)(O)c1cc(-c2ccc(-c3cccc(S(C)(=O)=O)c3)s2)n(-c2cccc(Cl)c2)n1 [Example 1256, 2-[1-(3-chlorophenyl)-5-{5-[3-(methylsulfonyl)phenyl]-2-thienyl}-1H-pyrazol-3-yl]propan-2-ol]
< 1000	CC(C)(O)c1cc(-c2ccc(-c3cc(C(F)(F)F)nn3-c3c(Cl)cccc3Cl)s2)cc(S(C)(=O)=O)c1 [Example 1317, 2-[3-{5-[1-(2,6-dichlorophenyl)-3-(trifluoromethyl)-1H-pyrazol-5-yl]-2-thienyl}-5-(methylsulfonyl)phenyl]propan-2-ol]
< 1000	CC(C)(O)c1cc(-c2ccc(-c3cccc(S(C)(=O)=O)c3)s2)n(-c2ccccc2Br)n1 [Example 1320, 2-[1-(2-bromophenyl)-5-{5-[3-(methylsulfonyl)phenyl]-2-thienyl}-1H-pyrazol-3-yl]propan-2-ol]
< 1000	CC(C)(O)c1cc(-c2ccc(-c3cccc(S(C)(=O)=O)c3)s2)n(Cc2ccc(F)cc2F)n1 [Example 1243, 2-(1-[(2,4-difluorophenyl)methyl]-5-{5-[3-(methylsulfonyl)phenyl]-2-thienyl}-1H-pyrazol-3-yl)propan-2-ol]
1000 to 10000	CC(C)(O)c1cc(-c2cc(-c3cccc(S(C)(=O)=O)c3)co2)n(-c2ccccc2Cl)n1 [Example 1235, 2-[1-(2-chlorophenyl)-5-{4-[3-(methylsulfonyl)phenyl]furan-2-yl}-1H-pyrazol-3-yl]propan-2-ol]

Continued, compound first:

Compound	EC50 [nM]
CS(=O)(=O)c1cccc(-c2ccc(-c3cc(CN4CCCC4)nn3-c3ccccc3Cl)s2)c1 [Example 456, 1-(2-chlorophenyl)-5-{5-[3-(methylsulfonyl)phenyl]-2-thienyl}-3-(pyrrolidin-1-ylmethyl)-1H-pyrazole]	1000 to 10000
CC(C)(O)c1cc(-c2ccc(-c3cccc(S(C)(=O)=O)c3)s2)n(-c2ccncc2Cl)n1 [Example 112, 2-(1-(3-chloropyridin-4-yl)-5-(5-(3-(methylsulfonyl)phenyl)thiophen-2-yl)-1H-pyrazol-3-yl)propan-2-ol]	1000 to 10000
CC(C)(O)c1cc(-c2ccc(-c3cccc(S(C)(=O)=O)c3)s2)n(-c2ncccc2C(F)(F)F)n1 [Example 1178, 2-(5-{5-[3-(methylsulfonyl)phenyl]-2-thienyl}-1-[3-(trifluoromethyl)pyridin-2-yl]-1H-pyrazol-3-yl)propan-2-ol]	< 1000
Cc1cc(-c2cccc(S(C)(=O)=O)c2)ccc1-n1nc(C(C)(C)O)cc1-c1cccc(F)c1F [Example 116, 2-(5-(2,3-difluorophenyl)-1-(3-methyl-3′-(methylsulfonyl)biphenyl-4-yl)-1H-pyrazol-3-yl)propan-2-ol]	< 1000
CS(=O)(=O)c1cccc(-c2ccc(-n3nc(C(O)(C(F)(F)F)C(F)(F)F)cc3-c3ccccc3Cl)cc2)c1 [Example 1225, 2-{5-(2-chlorophenyl)-1-[3′-(methylsulfonyl)biphenyl-4-yl]-1H-pyrazol-3-yl}-1,1,1,3,3,3-hexafluoropropan-2-ol]	< 1000
CS(=O)(=O)c1cccc(-c2ccc(-c3cc(C(F)(F)F)nn3-c3ccccc3S(N)(=O)=O)s2)c1 [Example 1131, 2-[5-{5-[3-(methylsulfonyl)phenyl]-2-thienyl}-3-(trifluoromethyl)-1H-pyrazol-1-yl]benzenesulfonamide]	< 1000
CN1CCN(CCn2nc(C(F)(F)F)cc2-c2ccc(-c3cccc(S(C)(=O)=O)c3)cc2)CC1 [Example 1223, 1-methyl-4-(2-{5-[3′-(methylsulfonyl)biphenyl-4-yl]-3-(trifluoromethyl)-1H-pyrazol-1-yl}ethyl)piperazine]	1000 to 10000
CC(=O)c1cc(-c2ccccc2Cl)n(-c2ccc(-c3cccc(S(C)(=O)=O)c3)cc2)n1 [Example 1224, 1-{5-(2-chlorophenyl)-1-[3′-(methylsulfonyl)biphenyl-4-yl]-1H-pyrazol-3-yl}ethanone]	< 1000
CC(O)(c1cc(-c2ccc(-c3cccc(S(C)(=O)=O)c3)s2)n(-c2ccccc2Cl)n1)C(F)(F)F (stereo not shown) [Example 1182, 2-[1-(2-chlorophenyl)-5-{5-[3-(methylsulfonyl)phenyl]-2-thienyl}-1H-pyrazol-3-yl]-1,1,1-trifluoropropan-2-ol]	< 1000
CONC(=O)c1cc(-c2ccc(-c3cccc(S(C)(=O)=O)c3)s2)n(-c2ccccc2Cl)n1 [Example 1163, 1-(2-chlorophenyl)-N-(methyloxy)-5-{5-[3-(methylsulfonyl)phenyl]-2-thienyl}-1H-pyrazole-3-carboxamide]	1000 to 10000
CC(C)(O)c1nn(-c2ccncc2Cl)c(-c2ccc(-c3cccc(S(C)(=O)=O)c3)s2)c1Cl [Example 125, 2-(4-chloro-1-(3-chloropyridin-4-yl)-5-(5-(3-(methylsulfonyl)phenyl)thiophen-2-yl)-1H-pyrazol-3-yl)propan-2-ol]	< 1000
CC(C)(O)c1cc(-c2ccc(-c3ccc(S(C)(=O)=O)cc3)s2)n(-c2ccccc2Cl)n1 [Example 804, 2-[1-(2-chlorophenyl)-5-{5-[4-(methylsulfonyl)phenyl]-2-thienyl}-1H-pyrazol-3-yl]propan-2-ol]	1000 to 10000
Cc1cc(-c2cccc(S(C)(=O)=O)c2)ccc1-n1nc(C(C)(C)O)c(Cl)c1-c1c(F)cccc1Cl [Example 149, 2-(4-chloro-5-(2-chloro-6-fluorophenyl)-1-(3-methyl-3′-(methylsulfonyl)biphenyl-4-yl)-1H-pyrazol-3-yl)propan-2-ol]	< 1000
CC(=O)c1cc(-c2ccc(-c3cccc(S(C)(=O)=O)c3)s2)n(-c2ccccc2Cl)n1 [Example 1150, 1-[1-(2-chlorophenyl)-5-{5-[3-(methylsulfonyl)phenyl]-2-thienyl}-1H-pyrazol-3-yl]ethanone]	< 1000
CN(C)CCCN(C)C(=O)c1cc(-c2ccc(-c3cccc(S(C)(=O)=O)c3)s2)n(-c2ccccc2Cl)n1 [Example 588, 1-(2-chlorophenyl)-N-[3-(dimethylamino)propyl]-N-methyl-5-{5-[3-(methylsulfonyl)phenyl]-2-thienyl}-1H-pyrazole-3-carboxamide]	< 1000
CC(C)(O)c1nn(-c2ccccc2Cl)c(-c2ccc(-c3cccc(S(C)(=O)=O)c3)nc2)c1Cl [Example 132, 2-(4-chloro-1-(2-chlorophenyl)-5-(6-(3-(methylsulfonyl)phenyl)pyridin-3-yl)-1H-pyrazol-3-yl)propan-2-ol]	1000 to 10000
